PubChem BioAssay (NCI)
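Interpolation was linear, between the two tested concentrations surrounding the appropriate level; five concentrations were tested over 48 hours in 96-well plates. The concentration for 50% growth inhibition is given as GI50. TGI is the concentration that stops growth completely.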

What was measured:
Test in all cases: NCI anticancer screen, dose series, 48 h
[1] = system: SW-620 colon
[2] = system: OVCAR-5 ovarian
[3] = system: SK-MEL-2 melanoma
[4] = system: CAKI-1 renal
[5] = system: SF-268 CNS
[6] = system: HOP-92 NSCLC
[7] = system: COLO 205 colon
[8] = system: PC-3 prostate
[9] = system: HCT-116 colon
[10] = system: SR leukemia
[11] = system: RPMI-8226 leukemia
[12] = system: SK-OV-3 ovarian
[13] = system: 786-0 renal
[14] = system: NCI-H522 lung
[15] = system: NCI-H460 lung
[16] = system: M14 melanoma
[17] = system: A498 renal
[18] = system: MDA-MB-435
[19] = system: A549 NSCLC
[20] = system: SK-MEL-28 melanoma
[21] = system: KM12 colon
[22] = system: UACC-257 melanoma
[23] = system: EKVX NSCLC
[24] = system: OVCAR-4 ovarian
[25] = system: T-47D breast
[26] = system: SNB-19 CNS
[27] = system: LOX IMVI melanoma
[28] = system: OVCAR-3 ovarian
[29] = system: NCI-H23 lung
[30] = system: SF-295 CNS
[31] = system: HT29 colon
[32] = system: DU-145 prostate
[33] = system: MOLT-4 leukemia
[34] = system: SNB-75 CNS
[35] = system: BT-549 breast
[36] = system: HL-60(TB) leukemia
[37] = system: OVCAR-8 ovarian
[38] = system: CCRF-CEM leukemia
[39] = system: NCI/ADR-RES ovarian
[40] = system: HOP-62 NSCLC
[41] = system: UACC-62 melanoma
[42] = system: MCF7 breast
[43] = system: IGROV1 ovarian
[44] = system: MALME-3M melanoma
[45] = system: TK-10 renal
[46] = system: RXF 393 renal
[47] = system: UO-31 renal
[48] = system: K-562 leukemia
[49] = system: HS 578T breast
[50] = system: HCT-15 colon
[51] = system: ACHN renal
[52] = system: SN12C renal
[53] = system: SK-MEL-5 melanoma
[54] = system: SF-539 CNS
[55] = system: MDA-MB-231 breast
[56] = system: HCC-2998 colon
[57] = system: NCI-H226 lung
[58] = system: U251 CNS

COc1cc2c3c(n(C)c(=O)c2cc1OC)-c1cc2c(cc1/C3=C/[C@H](N)CCCCN)OCO2
GI50 [1]: 0.595 µM
TGI [1]: > 37.9 µM
GI50 [2]: 0.885 µM
TGI [2]: 5.65 µM
GI50 [3]: 2.68 µM
TGI [3]: 8.98 µM
GI50 [4]: 1.23 µM
TGI [4]: 11.5 µM
GI50 [5]: 0.315 µM
TGI [5]: 3.97 µM
GI50 [6]: 4.48 µM
TGI [6]: > 50.9 µM
GI50 [7]: 1.18 µM
TGI [7]: > 19.8 µM
GI50 [8]: 2 µM
TGI [8]: 27.5 µM
GI50 [9]: 0.564 µM
TGI [9]: 2.24 µM
GI50 [10]: 0.123 µM
TGI [10]: > 100 µM
GI50 [11]: 1.59 µM
TGI [11]: > 61.5 µM
GI50 [12]: 1.4 µM
TGI [12]: > 24.7 µM
GI50 [13]: 1.68 µM
TGI [13]: 18 µM
GI50 [14]: 0.665 µM
TGI [14]: 5.85 µM
GI50 [15]: 0.196 µM
TGI [15]: 1.62 µM
GI50 [16]: 1.59 µM
TGI [16]: 4.55 µM
GI50 [17]: 4.72 µM
TGI [17]: 22.7 µM
GI50 [18]: 0.293 µM
TGI [18]: 4.69 µM
GI50 [19]: 0.622 µM
TGI [19]: 24.5 µM
GI50 [20]: 1.89 µM
TGI [20]: 11.2 µM
GI50 [21]: 2.07 µM
TGI [21]: > 58.5 µM
GI50 [22]: 1.98 µM
TGI [22]: 11.1 µM
GI50 [23]: 5.93 µM
TGI [23]: > 24.8 µM
GI50 [24]: 2.27 µM
TGI [24]: 7.92 µM
GI50 [25]: 4.85 µM
TGI [25]: > 100 µM
GI50 [26]: 0.829 µM
TGI [26]: 20.1 µM
GI50 [27]: 0.63 µM
TGI [27]: 2.37 µM
GI50 [28]: 1.45 µM
TGI [28]: 9.89 µM
GI50 [29]: 2.52 µM
TGI [29]: 21.9 µM
GI50 [30]: 0.401 µM
TGI [30]: 3.31 µM
GI50 [31]: 1.65 µM
TGI [31]: > 100 µM
GI50 [32]: 1.07 µM
TGI [32]: 50 µM
TGI [33]: > 100 µM
GI50 [34]: 3.74 µM
TGI [34]: 27.7 µM
TGI [35]: 2.57 µM
GI50 [36]: 13.4 µM
TGI [36]: > 100 µM
GI50 [37]: 2.27 µM
TGI [37]: 23.4 µM
GI50 [38]: 0.0526 µM
TGI [38]: > 100 µM
GI50 [39]: 5.19 µM
TGI [39]: > 27.1 µM
GI50 [40]: 1.34 µM
TGI [40]: 11.6 µM
GI50 [41]: 1.28 µM
TGI [41]: 6.33 µM
GI50 [42]: 0.537 µM
TGI [42]: 3.93 µM
GI50 [43]: 1.27 µM
TGI [43]: 7.43 µM
GI50 [44]: 0.0491 µM
TGI [44]: 0.7 µM
GI50 [45]: 3.95 µM
TGI [45]: 21.5 µM
GI50 [46]: 3.45 µM
TGI [46]: 12.7 µM
GI50 [47]: 3.14 µM
TGI [47]: 23 µM
GI50 [48]: 4.68 µM
TGI [48]: > 100 µM
GI50 [49]: 2.52 µM
TGI [49]: 17.4 µM
GI50 [50]: 6.8 µM
TGI [50]: > 86.4 µM
GI50 [51]: 0.637 µM
TGI [51]: 3.16 µM
GI50 [52]: 0.662 µM
TGI [52]: 6.39 µM
GI50 [53]: 1.49 µM
TGI [53]: 7.64 µM
GI50 [54]: 0.742 µM
TGI [54]: 4.62 µM
GI50 [55]: 0.941 µM
TGI [55]: 6.22 µM

COC(=O)[C@@H]1CCCN1C(=O)[C@H]1CCCN1C(=O)[C@@H](Cc1c[nH]c2ccccc12)NC(=S)Nc1cc(C(F)(F)F)cc(C(F)(F)F)c1
GI50 [1]: 3.19 µM
TGI [1]: 11.2 µM
GI50 [2]: 4.3 µM
TGI [2]: 18.4 µM
GI50 [3]: 2.14 µM
TGI [3]: 3.98 µM
GI50 [4]: 2.75 µM
TGI [4]: 8.99 µM
GI50 [5]: 3.51 µM
TGI [5]: 12.1 µM
GI50 [6]: 1.12 µM
TGI [6]: 3.43 µM
GI50 [7]: 2.06 µM
TGI [7]: 3.97 µM
GI50 [8]: 1.75 µM
TGI [8]: 3.98 µM
GI50 [9]: 1.96 µM
TGI [9]: 4.14 µM
GI50 [10]: 2.48 µM
TGI [10]: 6.3 µM
GI50 [11]: 2.62 µM
TGI [11]: 7.93 µM
GI50 [12]: 6.56 µM
TGI [12]: 18.9 µM
GI50 [13]: 7.5 µM
TGI [13]: 20.2 µM
GI50 [14]: 2.47 µM
TGI [14]: 6.65 µM
GI50 [15]: 2.01 µM
TGI [15]: 4.26 µM
GI50 [16]: 2.41 µM
TGI [16]: 5.86 µM
GI50 [17]: 1.01 µM
TGI [17]: 7.11 µM
GI50 [18]: 2.9 µM
TGI [18]: 9.07 µM
GI50 [56]: 2.05 µM
TGI [56]: 4.3 µM
GI50 [19]: 2.19 µM
TGI [19]: 5.54 µM
GI50 [20]: 3.05 µM
TGI [20]: 10.2 µM
GI50 [21]: 2.84 µM
TGI [21]: 8.01 µM
GI50 [22]: 2.5 µM
TGI [22]: 6.99 µM
GI50 [24]: 2.29 µM
TGI [24]: 7.55 µM
GI50 [25]: 2.44 µM
TGI [25]: 7.53 µM
GI50 [26]: 3.78 µM
TGI [26]: 14.4 µM
GI50 [27]: 1.95 µM
TGI [27]: 4.29 µM
GI50 [28]: 2.48 µM
TGI [28]: 5.71 µM
GI50 [29]: 3.13 µM
TGI [29]: 11.4 µM
GI50 [30]: 2.27 µM
TGI [30]: 5.71 µM
GI50 [31]: 1.97 µM
TGI [31]: 3.84 µM
GI50 [32]: 2.24 µM
TGI [32]: 4.63 µM
GI50 [33]: 2.88 µM
TGI [33]: 7.98 µM
GI50 [34]: 1.4 µM
TGI [34]: 6.75 µM
GI50 [35]: 3.52 µM
TGI [35]: 11.3 µM
GI50 [36]: 2.7 µM
TGI [36]: 6.35 µM
GI50 [37]: 2.55 µM
TGI [37]: 6.4 µM
GI50 [38]: 3.25 µM
TGI [38]: 11.3 µM
GI50 [39]: 3.96 µM
TGI [39]: 21.4 µM
GI50 [40]: 3.25 µM
TGI [40]: 12.1 µM
GI50 [57]: 2.86 µM
TGI [57]: 11.7 µM
GI50 [41]: 2.38 µM
TGI [41]: 6.29 µM
GI50 [42]: 2.11 µM
TGI [42]: 5.37 µM
GI50 [43]: 2.59 µM
TGI [43]: 6.73 µM
GI50 [44]: 2.65 µM
TGI [44]: 7.24 µM
GI50 [45]: 2.58 µM
TGI [45]: 6.62 µM
GI50 [46]: 2.18 µM
TGI [46]: 7.08 µM
GI50 [47]: 3.23 µM
TGI [47]: 11.6 µM
GI50 [48]: 3.73 µM
TGI [48]: 12.2 µM
GI50 [49]: 2.94 µM
TGI [49]: 13.4 µM
GI50 [50]: 3.35 µM
TGI [50]: 12.8 µM
GI50 [58]: 1.92 µM
TGI [58]: 4.52 µM
GI50 [51]: 2.97 µM
TGI [51]: 11 µM
GI50 [52]: 3.14 µM
TGI [52]: 10.9 µM
GI50 [53]: 2.45 µM
TGI [53]: 7.11 µM
GI50 [54]: 3.83 µM
TGI [54]: 14.3 µM
GI50 [55]: 2.34 µM
TGI [55]: 5.6 µM
